Source: US20240123079A1 (Seagen Inc., priority 2021, published 2024)

Assay: In vivo cytokine assay, plasma of Renca tumor-bearing mice
Design: species or system mouse; IFNg production in plasma / IL-1b production in plasma / IL-6 production in plasma / IL12p70 production in plasma / IP10 production in plasma / MIP1a production in plasma / MIP1b production in plasma / TNFa production in plasma: unit not given here
Experimental: Cytokines were measured in mouse plasma harvested at 3, 6, 24, or 48 hours after treatment with compounds or ADCs using a Milliplex MAP mouse cytokine/chemokine magnetic bead panel assay kit (MCYTOMAG-70k custom 11-plex kit: MCP1, MIP1α, MIP1β, TNFα, IFNγ, IL-10, IL-12p70, IL-6, IL-1β, IP10, RANTES) and analyzed using a Luminex™ MAGPIX™ Instrument System. Values that were outside of the standard curve range (<3.2 or […]) were excluded from calculation of the mean values.

In the case of `CCn1nc(C)cc1C(=O)Nc1nc2cc(C(N)=O)cc(OC)c2n1C/C=C/Cn1c(NC(=O)c2cc(C)nn2CC)nc2cc(C(N)=O)cc(OCCCNC)c21` [Compound 12a], the “IFNg production in plasma” value (0.2 mg/kg, dose #1, 3 h) is reported as <3.2, the “IL12p70 production in plasma” value (0.2 mg/kg, dose #1, 3 h) is reported as <3.2 and the “IL-1b production in plasma” value (0.2 mg/kg, dose #1, 3 h) is reported as 0.7. The “IL-6 production in plasma” value (0.2 mg/kg, dose #1, 3 h) was 780.0, the “IL-10 production in plasma” value (0.2 mg/kg, dose #1, 3 h) was 15.6 and the “IP10 production in plasma” value (0.2 mg/kg, dose #1, 3 h) was 1989.6. For the same molecule, the “MCP-1 production in plasma” value (0.2 mg/kg, dose #1, 3 h) was 333.3, the “MIP1a production in plasma” value (0.2 mg/kg, dose #1, 3 h) was 10.3 and the “MIP1b production in plasma” value (0.2 mg/kg, dose #1, 3 h) was 727.2. The “RANTES production in plasma” value (0.2 mg/kg, dose #1, 3 h) was <3.2, the “TNFa production in plasma” value (0.2 mg/kg, dose #1, 3 h) was 9.1 and the “IFNg production in plasma” value (0.2 mg/kg, dose #1, 6 h) was 4.6. For the same molecule, the “IL12p70 production in plasma” value (0.2 mg/kg, dose #1, 6 h) was <3.2, the “IL-1b production in plasma” value (0.2 mg/kg, dose #1, 6 h) was 0.7 and the “IL-6 production in plasma” value (0.2 mg/kg, dose #1, 6 h) was 266.1. For the same molecule, the “IL-10 production in plasma” value (0.2 mg/kg, dose #1, 6 h) was <3.2, the “IP10 production in plasma” value (0.2 mg/kg, dose #1, 6 h) was 8985.4 and the “MCP-1 production in plasma” value (0.2 mg/kg, dose #1, 6 h) was 7790.8. For the same molecule, the “MIP1a production in plasma” value (0.2 mg/kg, dose #1, 6 h) was 101.9, the “MIP1b production in plasma” value (0.2 mg/kg, dose #1, 6 h) was 670.7 and the “RANTES production in plasma” value (0.2 mg/kg, dose #1, 6 h) was 130.3. The “TNFa production in plasma” value (0.2 mg/kg, dose #1, 6 h) was 8.1, the “IFNg production in plasma” value (0.2 mg/kg, dose #1, 24 h) was <3.2 and the “IL12p70 production in plasma” value (0.2 mg/kg, dose #1, 24 h) was <3.2. For the same molecule, the “IL-1b production in plasma” value (0.2 mg/kg, dose #1, 24 h) was 3.2, the “IL-6 production in plasma” value (0.2 mg/kg, dose #1, 24 h) was 4.1 and the “IL-10 production in plasma” value (0.2 mg/kg, dose #1, 24 h) was <3.2. For the same molecule, the “IP10 production in plasma” value (0.2 mg/kg, dose #1, 24 h) was 257.9, the “MCP-1 production in plasma” value (0.2 mg/kg, dose #1, 24 h) was 53.0 and the “MIP1a production in plasma” value (0.2 mg/kg, dose #1, 24 h) was <3.2. For the same molecule, the “MIP1b production in plasma” value (0.2 mg/kg, dose #1, 24 h) was <3.2, the “RANTES production in plasma” value (0.2 mg/kg, dose #1, 24 h) was 3.2 and the “TNFa production in plasma” value (0.2 mg/kg, dose #1, 24 h) was 3.2. For the same molecule, the “IFNg production in plasma” value (0.2 mg/kg, dose #1, 48 h) was <3.2, the “IL12p70 production in plasma” value (0.2 mg/kg, dose #1, 48 h) was <3.2 and the “IL-1b production in plasma” value (0.2 mg/kg, dose #1, 48 h) was 0.7. The “IL-6 production in plasma” value (0.2 mg/kg, dose #1, 48 h) was 5.6, the “IL-10 production in plasma” value (0.2 mg/kg, dose #1, 48 h) was <3.2 and the “IP10 production in plasma” value (0.2 mg/kg, dose #1, 48 h) was 172.8. For the same molecule, the “MCP-1 production in plasma” value (0.2 mg/kg, dose #1, 48 h) was 56.8, the “MIP1a production in plasma” value (0.2 mg/kg, dose #1, 48 h) was 10.3 and the “MIP1b production in plasma” value (0.2 mg/kg, dose #1, 48 h) was <3.2. The “RANTES production in plasma” value (0.2 mg/kg, dose #1, 48 h) was <3.2, the “TNFa production in plasma” value (0.2 mg/kg, dose #1, 48 h) was 4.3 and the “IFNg production in plasma” value (0.2 mg/kg, dose #2, 6 h) was 16.5. For the same molecule, the “IL12p70 production in plasma” value (0.2 mg/kg, dose #2, 6 h) was <3.2, the “IL-1b production in plasma” value (0.2 mg/kg, dose #2, 6 h) was 2.7 and the “IL-6 production in plasma” value (0.2 mg/kg, dose #2, 6 h) was 410.9. The “IL-10 production in plasma” value (0.2 mg/kg, dose #2, 6 h) was 1.2, the “IP10 production in plasma” value (0.2 mg/kg, dose #2, 6 h) was >10000 and the “MCP-1 production in plasma” value (0.2 mg/kg, dose #2, 6 h) was 5244.6. The “MIP1a production in plasma” value (0.2 mg/kg, dose #2, 6 h) was 104.9, the “MIP1b production in plasma” value (0.2 mg/kg, dose #2, 6 h) was 718.6 and the “RANTES production in plasma” value (0.2 mg/kg, dose #2, 6 h) was 133.8. The “TNFa production in plasma” value (0.2 mg/kg, dose #2, 6 h) was 10.0, the “IFNg production in plasma” value (0.6 mg/kg, dose #1, 3 h) was <3.2 and the “IL12p70 production in plasma” value (0.6 mg/kg, dose #1, 3 h) was <3.2. For the same molecule, the “IL-1b production in plasma” value (0.6 mg/kg, dose #1, 3 h) was 0.7, the “IL-6 production in plasma” value (0.6 mg/kg, dose #1, 3 h) was 1899.7 and the “IL-10 production in plasma” value (0.6 mg/kg, dose #1, 3 h) was 30.4. The “IP10 production in plasma” value (0.6 mg/kg, dose #1, 3 h) was 4826.2, the “MCP-1 production in plasma” value (0.6 mg/kg, dose #1, 3 h) was 1547.8 and the “MIP1a production in plasma” value (0.6 mg/kg, dose #1, 3 h) was 251.5. For the same molecule, the “MIP1b production in plasma” value (0.6 mg/kg, dose #1, 3 h) was 2471.0, the “RANTES production in plasma” value (0.6 mg/kg, dose #1, 3 h) was 20.1 and the “TNFa production in plasma” value (0.6 mg/kg, dose #1, 3 h) was 21.0. The “IFNg production in plasma” value (0.6 mg/kg, dose #1, 6 h) was 18.3, the “IL12p70 production in plasma” value (0.6 mg/kg, dose #1, 6 h) was 3.1 and the “IL-1b production in plasma” value (0.6 mg/kg, dose #1, 6 h) was 5.7. The “IL-6 production in plasma” value (0.6 mg/kg, dose #1, 6 h) was 424.0, the “IL-10 production in plasma” value (0.6 mg/kg, dose #1, 6 h) was 3.8 and the “IP10 production in plasma” value (0.6 mg/kg, dose #1, 6 h) was 8828.3. For the same molecule, the “MCP-1 production in plasma” value (0.6 mg/kg, dose #1, 6 h) was 12898.6, the “MIP1a production in plasma” value (0.6 mg/kg, dose #1, 6 h) was 137.2 and the “MIP1b production in plasma” value (0.6 mg/kg, dose #1, 6 h) was 1050.0. The “RANTES production in plasma” value (0.6 mg/kg, dose #1, 6 h) was 255.0, the “TNFa production in plasma” value (0.6 mg/kg, dose #1, 6 h) was 15.6 and the “IFNg production in plasma” value (0.6 mg/kg, dose #1, 24 h) was <3.2. For the same molecule, the “IL12p70 production in plasma” value (0.6 mg/kg, dose #1, 24 h) was <3.2, the “IL-1b production in plasma” value (0.6 mg/kg, dose #1, 24 h) was 1.6 and the “IL-6 production in plasma” value (0.6 mg/kg, dose #1, 24 h) was 6.1. For the same molecule, the “IL-10 production in plasma” value (0.6 mg/kg, dose #1, 24 h) was <3.2 and the “IP10 production in plasma” value (0.6 mg/kg, dose #1, 24 h) was 381.8.
